For this experiment, the target named is PI3Kβ (Homo sapiens (Human), UniProt P42338). Briefly: PI3K isoform TR-FRET enzymatic assay (PI3Kβ). It counts as biochemical. Conditions: 2× Km ATP, 30 minutes at 25° C. The method in brief:
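IC50 came from four-parameter dose-response fits, normalized between DMSO and 1 μM wortmannin controls. The read-out was TR-FRET (615/665 nm) of PIP3 displacing fluorescent PIP3 from Europium GRP-1 after 10 mM EDTA termination. Compounds were incubated with purified heterodimeric PI3Kβ for 30 min at 25° C.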

10 compounds from patent publication US10214519B2, “Phosphatidylinositol 3-kinase inhibitors” (Gilead Sciences, Inc., priority 2016, dated 2019) can be followed below.

Chain of PI3Kβ (P42338 whole entry, canonical isoform): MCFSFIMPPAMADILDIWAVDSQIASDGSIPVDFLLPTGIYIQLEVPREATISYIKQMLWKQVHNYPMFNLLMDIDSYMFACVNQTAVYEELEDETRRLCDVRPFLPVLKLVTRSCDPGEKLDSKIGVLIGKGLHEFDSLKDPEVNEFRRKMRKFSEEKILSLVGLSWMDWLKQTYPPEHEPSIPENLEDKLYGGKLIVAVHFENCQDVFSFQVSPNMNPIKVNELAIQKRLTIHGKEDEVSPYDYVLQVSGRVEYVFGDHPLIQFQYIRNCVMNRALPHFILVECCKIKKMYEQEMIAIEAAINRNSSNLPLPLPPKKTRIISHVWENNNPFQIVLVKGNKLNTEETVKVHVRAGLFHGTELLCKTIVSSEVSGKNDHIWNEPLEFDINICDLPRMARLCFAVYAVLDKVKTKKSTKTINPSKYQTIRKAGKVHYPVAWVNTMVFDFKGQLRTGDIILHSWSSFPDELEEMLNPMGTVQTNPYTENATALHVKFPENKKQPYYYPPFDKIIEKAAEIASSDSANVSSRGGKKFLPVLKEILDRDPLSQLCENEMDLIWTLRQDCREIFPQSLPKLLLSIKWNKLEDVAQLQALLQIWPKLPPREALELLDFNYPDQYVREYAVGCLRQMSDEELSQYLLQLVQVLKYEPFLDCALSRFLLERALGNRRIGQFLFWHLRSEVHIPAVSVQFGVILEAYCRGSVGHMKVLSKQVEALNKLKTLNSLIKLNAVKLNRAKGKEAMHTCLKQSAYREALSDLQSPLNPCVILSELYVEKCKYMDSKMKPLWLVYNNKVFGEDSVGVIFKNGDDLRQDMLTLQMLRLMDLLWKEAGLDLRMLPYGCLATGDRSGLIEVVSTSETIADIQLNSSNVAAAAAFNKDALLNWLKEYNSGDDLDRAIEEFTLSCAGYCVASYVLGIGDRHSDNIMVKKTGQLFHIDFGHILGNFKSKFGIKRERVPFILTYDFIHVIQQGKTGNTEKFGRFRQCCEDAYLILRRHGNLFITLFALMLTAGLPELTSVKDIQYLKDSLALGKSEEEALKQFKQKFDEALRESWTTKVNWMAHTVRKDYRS
Chain of PI3Kβ (P27986 whole entry partner, canonical isoform): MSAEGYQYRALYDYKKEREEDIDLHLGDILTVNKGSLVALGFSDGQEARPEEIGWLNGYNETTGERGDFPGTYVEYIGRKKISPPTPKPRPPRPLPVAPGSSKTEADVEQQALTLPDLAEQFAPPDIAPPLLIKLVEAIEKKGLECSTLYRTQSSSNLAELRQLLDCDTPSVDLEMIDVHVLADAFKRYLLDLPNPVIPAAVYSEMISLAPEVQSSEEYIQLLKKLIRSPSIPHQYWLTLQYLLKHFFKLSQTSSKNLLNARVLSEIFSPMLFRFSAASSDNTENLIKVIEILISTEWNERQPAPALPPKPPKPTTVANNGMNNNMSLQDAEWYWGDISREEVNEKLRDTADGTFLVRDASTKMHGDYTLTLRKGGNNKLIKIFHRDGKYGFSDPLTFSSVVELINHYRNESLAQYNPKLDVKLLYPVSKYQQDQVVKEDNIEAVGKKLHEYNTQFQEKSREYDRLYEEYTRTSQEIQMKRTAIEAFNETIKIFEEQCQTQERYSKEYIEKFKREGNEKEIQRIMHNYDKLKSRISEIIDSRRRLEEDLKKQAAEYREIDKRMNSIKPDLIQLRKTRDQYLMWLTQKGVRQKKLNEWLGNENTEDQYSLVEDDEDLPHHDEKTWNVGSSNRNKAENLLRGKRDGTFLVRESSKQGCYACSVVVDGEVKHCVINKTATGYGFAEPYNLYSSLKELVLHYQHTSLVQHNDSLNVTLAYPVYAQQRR

`CCc1nc2c(-c3nnc(C)[nH]3)cc(N3CCOCC3)cc2n1-c1ccnc2c(Cl)cccc12` [Example 133, 4-[3-(8-chloroquinolin-4-yl)-2-ethyl-7-(5-methyl-4H-1,2,4-triazol-3-yl)benzimidazol-5-yl]morpholine] displayed an IC50 of 21 nM.

The compound `Cc1cc(-n2cnc3c(-c4cnc[nH]4)cc(N4CCOCC4)cc32)c2c(Cl)ccc(Cl)c2n1` [Example 330] had an IC50 of 5 nM.

Regarding `Cc1nc2c(-c3nnc[nH]3)cc(N3CCOCC3)cc2n1-c1ccnc2cccc(C(F)F)c12` [Example 85, 4-[3-[5-(difluoromethyl)quinolin-4-yl]-2-methyl-7-(4H-1,2,4-triazol-3-yl)benzimidazol-5-yl]morpholine], 280 nM corresponded to half-maximal inhibition (IC50).

In turn, `Cc1nc2c(-c3ccnn3C)cc(N3CCOCC3)cc2n1-c1ccnc2c(Cl)cccc12` [Example 269, 4-[3-(8-chloroquinolin-4-yl)-2-methyl-7-(2-methylpyrazol-3-yl)benzimidazol-5-yl]morpholine] returned an IC50 of 7000 nM.

In the case of `CCc1nc2c(-c3cnc[nH]3)cc(N3CCOCC3)cc2n1-c1ccnc2c(F)cccc12` [Example 209, 4-[2-ethyl-3-(8-fluoroquinolin-4-yl)-7-(1H-imidazol-5-yl)benzimidazol-5-yl]morpholine], half-maximal inhibition (IC50) required 15 nM. Against the preceding compound, the IC50 is about 470-fold lower.

`Clc1cccc2c(-n3c(CC4CC4)nc4c(-c5nnc[nH]5)cc(N5CCOCC5)cc43)ccnc12` [Example 32, 4-(1-(8-chloroquinolin-4-yl)-2-(cyclopropylmethyl)-4-(4H-1,2,4-triazol-3-yl)-1H-benzo[d]imidazol-6-yl)morpholine] showed an IC50 of 9 nM. Against the preceding compound, the IC50 is about 1.7-fold lower.

As to `Cc1nc2c(-c3nnco3)cc(N3CCOCC3)cc2n1-c1ccnc2c(Cl)cccc12` [Example 162, 4-(1-(8-chloroquinolin-4-yl)-2-methyl-4-(1,3,4-oxadiazol-2-yl)-1H-benzo[d]imidazol-6-yl)morpholine], it took 77 nM to reach half-maximal inhibition (IC50).

The compound `CC(C)Cc1nc2c(-c3nnc[nH]3)cc(N3CCOCC3)cc2n1-c1ccnc2c(Cl)cccc12` [Example 50, 4-(1-(8-chloroquinolin-4-yl)-2-isobutyl-4-(4H-1,2,4-triazol-3-yl)-1H-benzo[d]imidazol-6-yl)morpholine] showed an IC50 of 16 nM.

On to `CCc1nc2c(-c3nnc(C)[nH]3)cc(N3CCOCC3)cc2n1-c1c(Cl)cnc2c(Cl)cccc12` (atropisomer, axis not shown) [Compound 348, 4-[3-(3,8-dichloroquinolin-4-yl)-2-ethyl-7-(5-methyl-4H-1,2,4-triazol-3-yl)benzimidazol-5-yl]morpholine], for which the midpoint of inhibition, the IC50, lay at 13 nM.

The compound `Cc1nc2c(-c3cnc(Cl)[nH]3)cc(N3CCOCC3)cc2n1-c1ccnc2c(F)ccc(F)c12` [Example 298, 4-[7-(2-chloro-1H-imidazol-5-yl)-3-(5,8-difluoroquinolin-4-yl)-2-methylbenzimidazol-5-yl]morpholin] returned an IC50 of 10 nM.

In general, IC50 refers to the concentration that gives 50% inhibition.
